Results taken from US20040229268A1, “Method and kit for identifying antibiotic-resistant microorganisms” (priority 2003, published 2004).

Experiments:
[1] = system: VanA and VanB gene sequences; experiment: HPA for detecting VanA and VanB gene sequences (Example 12); format: binding, E. faecalis, E. faecium
Method: Double-stranded plasmids harboring inserts of either VanA or VanB gene sequences were prepared for use as control templates. More specifically, VanA gene sequences were amplified in a PCR protocol using primers having the sequences of VanA(+)464 Kpn and VanA(−)1325Bam. Similarly, VanB gene sequences were amplified using primers having the sequences of VanB(+)084 Kpn and VanB(−)1006Bam. Genomic DNA samples from bacteria known to have VanA or VanB genotypes were used as templates in the amplification reactions. Blunt-ended amplification products containing VanA gene sequences were ligated into a pPCR-[…] SK(+) (Stratagene; La Jolla, Calif.) plasmid cloning vector, and propagated in E. coli host bacteria using procedures that will be familiar to those having an ordinary level of skill in the art. Double-stranded amplification products containing VanB gene sequences were first digested with KpnI and BamHI, and then ligated into a similarly cleaved pBLUESCRIPT-II KS(+) (Stratagene; La Jolla, Calif.) plasmid cloning vector. Isolated double-stranded plasmid DNA served as controls in hybridization assays.
2′-deoxy probes having the sequences presented under Example 10 were prepared by standard phosphoramidite synthesis. AE labeling of the probes also was performed using standard procedures, as described herein and as will be familiar to those having an ordinary level of skill in the art. Samples of four different cultured VRE bacteria described under the previous Example were lysed essentially as described above. RNA in the samples was hydrolyzed and DNA denatured by incubation of the lysate with hydroxide at elevated temperature. In parallel procedures, samples of two plasmid clones harboring either the VanA or VanB inserts (as described under the previous Example) were also treated to denature DNA. All samples were neutralized by addition of a buffered HCl reagent. AE-labeled probes were added to each of the samples and then hybridized at 55-60° C. for 45 minutes to permit formation of complementary probe:target duplexes. The pan-bacterial probe (Probe Reagent 1, GEN-PROBE® MTC-NI Kit, catalog no. 4573) described under Example 2 was used as a positive control to confirm the presence of bacterial nucleic acid targets. Trials containing labeled probe in the absence of an added target (i.e., “probe alone”) served as negative controls. The AE label joined to probe molecules that remained single-stranded following the hybridization procedure were destroyed by treatment under mild alkaline conditions, and the extent of specific hybrid formation quantified by luminometry as described in the foregoing Examples.

[2] = system: mecA gene; Staphylococcus spp. and S. aureus ribosomal nucleic acids; experiment: HPA probe panel on clinical and ATCC isolates (Examples 8-9); format: binding
Method: Oxacillin MIC results were provided by an outside laboratory. The GP Probe results were determined as described in Example 8.

CCAAGCACCCGATATACTTTCTTTGCC (DNA, backbone and methylation of C not given here; further chemistry not fully specified; listed as Enterococcus faecalis) [VanB(−)1006]
Probe Hybridization (in RLU) ([1]; ATCC 51299 (VanB), E. faecalis lysate): 8335 RLU
Probe Hybridization (in RLU) ([1]; ATCC 51575 (VanB), E. faecalis lysate): 6300 RLU
Probe Hybridization (in RLU) ([1]; ATCC 700221 (VanA), E. faecium lysate): 1485 RLU
Probe Hybridization (in RLU) ([1]; ATCC 700802 (VanB), E. faecalis lysate): 9116 RLU
Probe Hybridization (in RLU) ([1]; Probe Alone (no added target)): 586 RLU
Probe Hybridization (in RLU) ([1]; VanA clone (plasmid)): 1708 RLU
Probe Hybridization (in RLU) ([1]; VanB clone (plasmid)): 27493 RLU
hybridization signal (in words) ([1]; samples containing nucleic acids from VanB-positive VRE bacteria): very strong signals

CCACTCAAGAGAGACAACATTTTCGACTAC (AE label linker 22/23, with helper oligonucleotides, chemistry not fully specified; listed as Staphylococcus aureus) [S. aureus]
HPA Results (# positive for indicated probes) ([2]; ATCC MRSA, 1 isolate, Oxacillin MIC 16 μg/ml): 1
HPA Results (# positive for indicated probes) ([2]; ATCC MSSA, 1 isolate, Oxacillin MIC 1 μg/ml): 1
HPA Results (# positive for indicated probes) ([2]; ATCC MSSA, 4 isolates, Oxacillin MIC 0.5 μg/ml): 4
HPA Results (# positive for indicated probes) ([2]; ATCC MSSA, 6 isolates, Oxacillin MIC ≦0.25 μg/ml): 6
HPA Results (# positive for indicated probes) ([2]; Clinical MRSA, 8 isolates, Oxacillin MIC 16 μg/ml): 8
HPA Results (# positive for indicated probes) ([2]; Clinical MRSA, 107 isolates, Oxacillin MIC >16 μg/ml): 107
HPA Results (# positive for indicated probes) ([2]; Clinical MSSA, 28 isolates, Oxacillin MIC 0.5 μg/ml): 28
HPA Results (# positive for indicated probes) ([2]; Clinical MSSA, 99 isolates, Oxacillin MIC ≦0.25 μg/ml): 99
HPA Results (RLU) ([2]; GP21 (S. aureus, mecA(−), MSSA)): 351348 RLU
HPA Results (RLU) ([2]; GP22 (CoNS, mecA(+))): 7637 RLU
HPA Results (RLU) ([2]; GP23 (S. aureus, mecA(−))): 280428 RLU
HPA Results (RLU) ([2]; GP24 (S. aureus, mecA(+))): 274112 RLU
HPA Results (RLU) ([2]; GP25 (S. aureus, mecA(+))): 408938 RLU
HPA Results (RLU) ([2]; GP26 (S. aureus, mecA(−))): 241597 RLU
HPA Results (RLU) ([2]; GP27 (CoNS, mecA(−))): 7057 RLU
HPA Results (RLU) ([2]; GP28 (S. aureus, mecA(−))): 195759 RLU
HPA Results (RLU) ([2]; GP29 (S. aureus, mecA(+))): 416372 RLU
HPA Results (RLU) ([2]; GP30 (S. aureus, mecA(−))): 399498 RLU
HPA Results (RLU) ([2]; GP31 (S. aureus, mecA(+))): 332750 RLU
HPA Results (RLU) ([2]; GP32 (S. aureus, mecA(−))): 414709 RLU
HPA Results (RLU) ([2]; GP33 (S. aureus, mecA(+))): 154183 RLU
HPA Results (RLU) ([2]; GP34 (S. aureus, mecA(−))): 497890 RLU
HPA Results (RLU) ([2]; GP35 (S. aureus, mecA(+))): 484580 RLU
HPA Results (RLU) ([2]; GP36 (S. aureus, mecA(−))): 356243 RLU
HPA Results (RLU) ([2]; GP37 (S. aureus, mecA(+))): 373448 RLU
HPA Results (RLU) ([2]; GP38 (S. aureus, mecA(+))): 367728 RLU
HPA Results (RLU) ([2]; GP39 (S. aureus, mecA(−))): 268665 RLU
HPA Results (RLU) ([2]; GP40 (S. aureus, mecA(−))): 283200 RLU
HPA Results (RLU) ([2]; Neg Control (Hybridization Buffer)): 3472 RLU
HPA Results (RLU) ([2]; Pos Control GP1217 (S. aureus, mecA(+), MRSA)): 162795 RLU
HPA Results (# positive for indicated probes) ([2]; S. epidermidis, 1 isolate, Oxacillin MIC >16 μg/ml): 0
HPA Results (# positive for indicated probes) ([2]; S. epidermidis, 2 isolates, Oxacillin MIC ≦0.25 μg/ml): 0
HPA Results (# positive for indicated probes) ([2]; S. hemoliticus, 1 isolate, Oxacillin MIC ≦0.25 μg/ml): 0
HPA Results (# positive for indicated probes) ([2]; S. hominis, 1 isolate, Oxacillin MIC ≦0.25 μg/ml): 0
HPA Results (# positive for indicated probes) ([2]; S. hyicus-hyicus, 1 isolate, Oxacillin MIC ≦0.25 μg/ml): 0
HPA Results (# positive for indicated probes) ([2]; S. intermedius, 1 isolate, Oxacillin MIC ≦0.25 μg/ml): 0
HPA Results (# positive for indicated probes) ([2]; S. saprophyticus, 1 isolate, Oxacillin MIC 0.5 μg/ml): 0
HPA Results (# positive for indicated probes) ([2]; S. simulans, 1 isolate, Oxacillin MIC ≦0.25 μg/ml): 0
HPA Results (# positive for indicated probes) ([2]; S. warneri, 1 isolate, Oxacillin MIC ≦0.25 μg/ml): 0
